The values below come from ChEMBL document CHEMBL1687789, “Characteristics and dissemination of mosaic penicillin-binding protein 2-harboring multidrug-resistant Neisseria gonorrhoeae isolates with reduced cephalosporin susceptibility in northern Taiwan” (2010).

A word on the MIC: it is the smallest concentration in the dilution series that meets the test's criterion for growth inhibition.

Values after ≈ are worked out from the molar mass of the structure shown.

What all share (type): functional
In experiment [1] the test system is Neisseria gonorrhoeae. The experiment can be described thus: Antimicrobial activity against multidrug-resistant Neisseria gonorrhoeae isolates by Etest.
Experiment [2] relates to Neisseria gonorrhoeae. The experiment can be described thus: Antimicrobial activity against multidrug-resistant Neisseria gonorrhoeae isolates harboring mosaic penicillin-binding protein 2 penA by Etest.
For experiment [3], the system named is Neisseria gonorrhoeae. The experiment can be described thus: Antimicrobial activity against Neisseria gonorrhoeae isolates harboring non-mosaic penicillin-binding protein 2 penA by Etest.
Experiment [4] has as its system Neisseria gonorrhoeae. The experiment can be described thus: Antimicrobial activity against multidrug-resistant Neisseria gonorrhoeae isolates assessed as resistant isolates by disk susceptibility test.
Experiment [5] concerns Neisseria gonorrhoeae. The experiment in a line: Antimicrobial activity against Neisseria gonorrhoeae isolates harboring non-mosaic penicillin-binding protein 2 penA assessed as resistant isolates by disk susceptibility test.
Experiment [6] has as its system Neisseria gonorrhoeae. The experiment in a line: Antimicrobial activity against multidrug-resistant Neisseria gonorrhoeae isolates harboring mosaic penicillin-binding protein 2 penA assessed as resistant isolates by disk susceptibility test.

On to `C=CC1=C(C(=O)O)N2C(=O)[C@@H](NC(=O)/C(=N\OCC(=O)O)c3csc(N)n3)[C@H]2SC1` [CEFIXIME], for which the MIC turned out to be 0.016 µg/mL (≈ 0.0353 µM) in the experiment with Neisseria gonorrhoeae [1], 0.125 µg/mL (≈ 0.276 µM) with Neisseria gonorrhoeae [2] and 0.016 µg/mL (≈ 0.0353 µM) against Neisseria gonorrhoeae [3].

In the case of `CO/N=C(\C(=O)N[C@@H]1C(=O)N2C(C(=O)O)=C(CSc3nc(=O)c(O)nn3C)CS[C@H]12)c1csc(N)n1` [CEFTRIAXONE], the minimum inhibitory concentration (MIC) in the experiment with Neisseria gonorrhoeae [1] is 0.002 µg/mL (≈ 0.00361 µM); in the experiment with Neisseria gonorrhoeae [2], 0.023 µg/mL (≈ 0.0415 µM); in the experiment with Neisseria gonorrhoeae [3], 0.002 µg/mL (≈ 0.00361 µM).

As to `O=C(O)c1cn(C2CC2)c2cc(N3CCNCC3)c(F)cc2c1=O` [CIPROFLOXACIN], the Activity in the experiment with Neisseria gonorrhoeae [4] was 88.6%; with Neisseria gonorrhoeae [5] it was 84.3%; with Neisseria gonorrhoeae [6], 100%.

For `CC1(C)S[C@@H]2[C@H](NC(=O)Cc3ccccc3)C(=O)N2[C@H]1C(=O)O` [PENICILLIN G], the Activity was determined as 62.2% in the experiment on Neisseria gonorrhoeae [4], 58.9% with Neisseria gonorrhoeae [5] and 71% in the experiment on Neisseria gonorrhoeae [6].
